According to patent US12662707B2, “MYC amplification drives resistance to pan-RAS inhibitors in pancreatic cancer” (The Trustees of Columbia University in the City of New York, priority 2024, dated 2026):

Tests used:
human PDAC cell lines = assay: Human cell line proliferation / viability assay; assay type: cell-based
Experimental: 19 PDAC cell lines were tested for sensitivity to RMC-7977 as part of a panel of human cancer cell lines of various histotypes screened at Crown Bioscience. These PDAC cell lines harbored KRASG12D, KRASG12V, KRASG12C, KRASQ61H, and BRAFV487_P492delinsA
mutations. To measure inhibition of cell proliferation, cells were cultured in methylcellulose and treated in triplicates with serial dilutions of RMC-7977 (top concentration of 1 μM) or DMSO dispensed by a Tecan D300e digital dispenser (Tecan Trading AG). Cells were incubated for 120 hours prior to measurement of ATP levels using CellTiter-Glo. Technical triplicates were run for each biological replicate and a total of three biological replicates was done for each cell line. CTG assay readouts were plotted as a function of log molar [inhibitor] and a 4-parameter sigmoidal concentration response model was fitted to the data. Mean±s.d. was plotted for each tested dilution.
PDAC cell lines harboring KRASWT or KRASQ61H were plated at 500-4,000 cells/well in clear, flat-bottomed 96-well plates (Corning) and grown for 24 h prior to adding indicated concentration of RMC-7977 or DMSO using the D300e digital dispenser (Tecan). Following treatment, cells were incubated for additional 3-5 days after which live cells were fluorescently labelled using Calcein AM (20-minute incubation at 500 nM, Thermo Fisher) and counted using the SpectraMax i3X multimode detection platform (Molecular Devices). Experiments were day 0 normalized using an independent culture plate. Growth percentage was calculated by normalizing drug-treated values to DMSO control, which was set to 100%. Four-parameter sigmoidal concentration response models were fitted to the data from 3 or more biological replicates. Mean±s.d. was plotted for each tested dilution.

[1] = test system: RAS/MAPK pathway (pERK, pAKT, pS6, c-PARP) in human PDAC cell lines; assay: Western blot of RAS pathway signaling, human PDAC cell lines; assay type: cell-based
Experimental: Cells were seeded at 7.5×10^5-4×10^6 cells per well in 6-well plates or 100 mm dishes in growth medium. After overnight incubation, indicated compound (RMC-7977, IAG933 or DMSO (0.1% v/v)) were added and incubated for the indicated time points. Cells were washed twice with ice-cold PBS and lysed with NP-40 lysis buffer (Thermo Fisher Scientific, J60766), MSD Tris Lysis Buffer (MSD, R60TX-2), RIPA buffer (50 mM TRIS-HCl, pH 7.5, 150 mM NaCl, 1% NP-40, 0.5% sodium deoxycholate, 0.1% SDS) or a lysis buffer containing 1% Triton X-100, 20 mM Tris-HCl, 150 mM NaCl, and 1 mM EDTA. All lysis buffers were supplemented with protease and phosphatase inhibitors. Lysates were scraped and collected before centrifugation at 21,000×g for 10 minutes at 4° C. The protein-containing supernatants were quantified by BCA assay (Pierce, 23225) and equal quantities of protein were denatured with LDS and reducing agent at 95° C. Samples were resolved on 12% or 4-12% Bis-Tris polyacrylamide gels, then transferred to a nitrocellulose or PVDF membrane using the iBlot 2.0 system or wet transfer. Membranes were blocked in Intercept TBS buffer (LiCor, 927-60001) or 3-5% milk before probing with primary antibodies overnight at 4° C. Secondary antibodies were added as appropriate, and the membranes were imaged on a LiCor Odyssey imager. Alternatively, membranes were incubated with HRP-linked secondary antibodies and developed with Clarity or ClarityMax chemiluminescent substrates using a ChemiDoc XRS+ or ChemiDoc™ MP imager (Bio-Rad).

[2] = test system: human PDAC xenograft models; assay: Human PDAC xenograft (CDX/PDX) tumor growth studies; assay type: in vivo, mouse; settings: 10 mg/kg daily
Experimental: Studies were conducted at the following CROs: GenenDesign (Shanghai, China), Pharmaron (Beijing, China), and Wuxi AppTec (SuZhou, China). All CDX/PDX mouse studies and procedures related to animal handling, care and treatment were conducted in compliance with all applicable regulations and guidelines of the relevant Institutional Animal Care and Use Committee (IACUC). Female BALB/c nude mice and NOD SCID mice 6-8 weeks old from Beijing Vital River/VR Laboratory Animal Co., LTD, Beijing AniKeeper Biotech Co., Ltd., and Shanghai Sino-British SIPPR/BK Laboratory Animal Co., LTD were used for these studies.
In order to generate subcutaneous xenograft tumors each mouse was inoculated at the right flank with tumor cells (2×10^6-1×10^7) in 100-200 μl of media/PBS supplemented with Matrigel (1:1). Treatments were started when the average tumor volume reached 150-250 mm^3 (for tumor growth evaluation) and 400-600 mm^3 (for single dose pharmacokinetic/pharmacodynamic (PK/PD) study). Tumor diameter was measured in two dimensions using a digital caliper, and the tumor volume in mm^3 was calculated using the formula: Volume=((width)2×length)/2. Mice on studies were weighed and tumors were measured 2 times a week.
The human primary cancer xenograft models were generated using fresh tumor fragments obtained from hospitals with informed consent from the patients in accordance with protocols approved by the Hospital Institutional Ethical Committee (IEC). The tumor fragments were serial passaged in BABL/c nude mice and then cryopreserved for further use. For this study, recovered tumor fragments of about 15-30 mm^3 in size from each model were implanted into right flanks of BALB/c nude mice. Treatment started when average tumor volume reached 150-250 mm^3.
To generate orthotopic xenograft tumors, survival surgeries were carried out and 2×10^6 5×10^6 luciferase-expressing tumor cells in 30-50 μL Media/Matrigel mixtures (1:1) were implanted directly into the mouse pancreas. Treatments were started when the tumors produced an average of 50-80×10^7 photon/second as measured by the in vivo imaging system (IVIS). All subsequent tumor measures were also conducted by IVIS. For routine monitoring, mice were injected intraperitoneally with 15 mg/mL (at 5 μL/g BW) of D-Luciferin (Perkin Elmer) and imaged, after which Living Image software (Perkin Elmer) was used to compute regions of interest (ROI) and tumor volumes.
Tumor-bearing animals were randomized and assigned into groups (n=3-10/group). Vehicle or RMC-7977 was administered via oral gavage daily at 10 mg/kg and animals were treated for 21-28 days. Studies were terminated early if tumor burden reached humane endpoint. Body weights were collected twice a week during the study. Means±s.e.m were plotted in the waterfall plots. For the single-dose pharmacokinetic/pharmacodynamic (PK/PD) study, mice were randomized and assigned into groups (n=3-6/dose/timepoint). A single dose of RMC-7977 was administered orally at 10 mg/kg, 25 mg/kg and 50 mg/kg. Tissues (including tumor, colon and skin) were harvested at indicated time points and either fixed in 10% formalin, embedded in Optimal Cutting Temperature (OCT; Sakura, 4583) solution or snap-frozen in LN2 for further analysis. Whole blood was transferred into K2EDTA Microtainer tubes (BD, 365974), incubated for 5 minutes and snap-frozen in LN2.

`CCn1c(-c2cc(N3CCN(C4CC4)CC3)cnc2[C@H](C)OC)c2c3cc(ccc31)-c1csc(n1)C[C@H](NC(=O)[C@H]1[C@@H]3COC[C@@H]31)C(=O)N1CCC[C@H](N1)C(=O)OCC(C)(C)C2` [RMC-7977] was tested, and the “potency in three additional KRASQ61H PDAC lines” value (human PDAC cell lines; KRASQ61H (Pa02C, T3M-4, UM147), 5 days) was “low nanomolar potency”, the “sensitivity of KRASWT cell lines and organoids” value (human PDAC cell lines; KRASWT cell lines and organoids) was “wider range of sensitivity” and the “potency in concentration-response cell viability assays” value (human PDAC cell lines; most human PDAC cell lines, 5 days) was “low nanomolar potency”. The sensitivity in vitro (human PDAC cell lines; two human cell lines, one KRASQ61H, one KRASWT with BRAF ClassII mutation) was “lower sensitivity”, the “phosphorylation of ERK1/2 (pERK)” value ([1]; human PDAC cell lines, 1-100 nM) was “reduced phosphorylation” and the “inhibition of PI3K effector signaling (pAKT, pS6S235/S236)” value ([1]; human cell lines) was “more variable inhibition”. The “duration of inhibition of pERK” value ([1]; human cell lines, 100 nM) was 48 hours, the “apoptotic marker cleaved PARP (c-PARP)” value ([1]; human cell lines, later timepoints) was “induction” and the “models with tumor regressions” value ([2]; 21-28 days) was 7/10. The “response of KRASQ61H mutant HS-766T line in CDX setting” value ([2]; HS-766T CDX) was “among the most responsive”, the tolerability ([2]; all 10 models) was “well tolerated” and the anti-tumor activity ([2]; all 10 models, 21-28 days) was “significant anti-tumor activity”. For the same compound, the “body weight over time” value ([2]; treated animals) was “stable body weight”.
